Measurements as given in ChEMBL document CHEMBL3137667, “[Drug-induced liver injury; fourteenth updated edition of the bibliographic database of liver injuries and related drugs]” (Gastroenterol Clin Biol, 2004).

Tests used:
[1] = human, serum, 4383 h
[2] = human
[3] = human; remark: listed apart in the source
[4] = Times to onset, minimal and maximal, observed in the indexed observations. [column 'DELAI' in source]; conditions: human
[5] = human; remark: listed apart in the source
[6] = human, serum
[7] = human; remark: listed apart in the source
[8] = human; remark: listed apart in the source
[9] = Highest frequency of acute liver toxicity observed during clinical trials, expressed as a percentage. [column '% AIGUE' in source]; conditions: human
[10] = Highest frequency of moderate liver toxicity observed during clinical trials, expressed as a percentage. [column '% BIOL' in source]; conditions: human
[11] = human; remark: listed apart in the source
[12] = human; remark: listed apart in the source
[13] = human; remark: listed apart in the source
[14] = human, serum; remark: listed apart in the source
[15] = human; remark: listed apart in the source
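Wherever Hepatotoxicity (association with vascular disease) is given: count of indexed literature references reporting vascular liver injury in humans, e.g. peliosis hepatitis, hepatic veno-occlusive disease or Budd-Chiari syndrome.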
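Wherever Hepatotoxicity (benign tumour) is given: value is a count of indexed literature references citing a benign tumour confirmed by histopathology.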
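Wherever Hepatotoxicity (choleostasis) is given: human cholestatic liver injury, shown by histopathology or by peak ALT or AST elevation over alkaline phosphatase ratio below 2, value counts indexed literature reports.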
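Wherever Hepatotoxicity (chronic liver disease) is given: chronic liver injury confirmed by histopathology or persistently raised serum aminotransferase activity beyond 6 months, value given as the count of indexed literature references.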
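Wherever Hepatotoxicity (cirrhosis) is given: value is a count of indexed literature references reporting cirrhosis confirmed by histopathology.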
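Wherever Hepatotoxicity (cytolytic) is given: human cytolytic liver injury, shown by histopathology or by a ratio above 5 of peak ALT or AST elevation to alkaline phosphatase elevation, value counts indexed references.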
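Wherever Hepatotoxicity (granulomatous hepatitis) is given: value is a count of indexed literature references reporting granulomatous liver disease confirmed by histopathology.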
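Wherever Hepatotoxicity (malignant tumour) is given: malignant tumour confirmed by histopathology, value gives the count of indexed literature references reporting it.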
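Wherever Hepatotoxicity (severe hepatitis) is given: human clinical data: severe hepatitis, meaning potentially life-threatening liver failure or clinically observed cases, the value counts how many indexed literature references report it.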
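Wherever Hepatotoxicity (steatosis) is given: steatosis confirmed by histopathology, value is the count of indexed references.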

SMILES | Hepatotoxicity (chronic liver disease) [1] | Hepatotoxicity (cirrhosis) [2] | Hepatotoxicity (time to onset) [4] | Hepatotoxicity (malignant tumour) [5] | Hepatotoxicity (moderate) [6] | Hepatotoxicity (steatosis) [7] | Hepatotoxicity (benign tumour) [11] | Hepatotoxicity (association with vascular disease) [12] | Hepatotoxicity (acute) [14] | Hepatotoxicity (cytolytic) [3] | Hepatotoxicity (choleostasis) [8] | Hepatotoxicity (acute) [9] [%] | Hepatotoxicity (moderate) [10] [%] | Hepatotoxicity (granulomatous hepatitis) [13] | Hepatotoxicity (severe hepatitis) [15] | other results
C=CCOc1ccccc1OCC(O)CNC(C)C (stereo not given) [OXPRENOLOL] | 0 | 0 | 1 day - 15 days | 0 | 1 | 0 | 0 | 0 | 1 | – | – | – | – | – | – | Hepatotoxicity (cytolytic) ([3]; Liver): 1; Hepatotoxicity (choleostasis) ([8]; Liver): 0; Hepatotoxicity (acute) ([9]; Liver): 0%; Hepatotoxicity (moderate) ([10]; Liver): 0%; Hepatotoxicity (granulomatous hepatitis) ([13]; Liver): 0; Hepatotoxicity (severe hepatitis) ([15]; Liver): 0
CC(=O)O[C@H]1C(=O)[C@@]2(C)[C@H]([C@H](OC(=O)c3ccccc3)[C@]3(O)C[C@H](OC(=O)[C@H](O)[C@@H](NC(=O)c4ccccc4)c4ccccc4)C(C)=C1C3(C)C)[C@]1(OC(C)=O)CO[C@@H]1C[C@@H]2O [PACLITAXEL] | 0 | 0 | 1 days | 0 | 7 | 0 | 0 | 0 | 5 | – | – | – | – | – | – | Hepatotoxicity (cytolytic) ([3]; Liver): 3; Hepatotoxicity (choleostasis) ([8]; Liver): 0; Hepatotoxicity (acute) ([9]; Liver): 6%; Hepatotoxicity (moderate) ([10]; Liver): 50%; Hepatotoxicity (granulomatous hepatitis) ([13]; Liver): 0; Hepatotoxicity (severe hepatitis) ([15]; Liver): 0
COc1ccnc(C[S+]([O-])c2nc3ccc(OC(F)F)cc3[nH]2)c1OC (stereo not given) [PANTOPRAZOLE] | 0 | 0 | 2 days - 8 days | 0 | 13 | 0 | 0 | 0 | 2 | 2 | 0 | 0 | 8.3 | 0 | 1 | –
OC[C@H]1O[C@@H](n2cnc3c2NC=NC[C@H]3O)C[C@@H]1O [PENTOSTATIN] | 0 | 0 | 1 day - 2 months | 0 | 16 | 1 | 0 | 0 | 1 | 1 | 0 | 0 | 81.3 | 0 | 2 | –
CC(=O)CCCCn1c(=O)c2c(ncn2C)n(C)c1=O [PENTOXIFYLLINE] | 0 | 0 | 3 weeks | 0 | 0 | 0 | 0 | 0 | 2 | 0 | 2 | 0 | 0 | 0 | 0 | –
CCC[C@H](N[C@@H](C)C(=O)N1[C@H](C(=O)O)C[C@@H]2CCCC[C@@H]21)C(=O)OCC [PERINDOPRIL] | 0 | 0 | 3 weeks | 0 | 1 | 0 | 0 | 0 | 1 | 1 | 0 | 0 | 12.2 | 0 | 0 | –
OCCN1CCN(CCCN2c3ccccc3Sc3ccc(Cl)cc32)CC1 [PERPHENAZINE] | 0 | 0 | 2 months | 0 | 2 | 0 | 0 | 0 | 5 | 1 | 4 | 0.3 | 23.4 | 0 | 0 | –
[H]/N=C(/N)N/C(=N/[H])NCCc1ccccc1 [PHENFORMIN] | 0 | 0 | 1 week | 0 | 0 | 0 | 0 | 0 | 1 | 0 | 0 | 0 | 0 | 0 | 0 | –
CC(COc1ccccc1)NN (stereo not given) [PHENOXYPROPAZINE] | 0 | 0 | 1.5 months - 4 months | 0 | 0 | 0 | 0 | 0 | 3 | 3 | 0 | 0 | 0 | 0 | 3 | –
O=c1[nH]c2ccccc2n1C1CCN(CCCC(c2ccc(F)cc2)c2ccc(F)cc2)CC1 [PIMOZIDE] | 0 | 0 | 3 days | 0 | 2 | 0 | 0 | 0 | 0 | 0 | 0 | 0 | 0 | 0 | 0 | –
O=C(CCBr)N1CCN(C(=O)CCBr)CC1 [PIPOBROMAN] | 0 | 0 | 2 months | 0 | 0 | 0 | 0 | 0 | 1 | 1 | 0 | 0 | 0 | 0 | 0 | –
NS(=O)(=O)c1cc(C(=O)O)cc(N2CCCC2)c1Oc1ccccc1 [PIRETANIDE] | 0 | 0 | 3 weeks | 0 | 0 | 0 | 0 | 0 | 1 | 1 | 0 | 0 | 0 | 0 | 0 | –
c1cnc(N2CCN(Cc3ccc4c(c3)OCO4)CC2)nc1 [PIRIBEDIL] | 0 | 0 | 12 days - 2.5 months | 0 | 2 | 0 | 0 | 0 | 0 | 0 | 0 | 0 | 10 | 0 | 0 | –
CN1CCC(=C2c3ccccc3CCc3sccc32)CC1 [PIZOTYLINE] | 0 | 0 | 12 days | 0 | 0 | 0 | 0 | 0 | 1 | 0 | 1 | 0 | 0 | 0 | 0 | –
